# Experimental data from US20260234161A1, “RIFABUTIN ANALOGS FOR THE TREATMENT OF BACTERIAL DISEASES” (BIOVERSYS AG, priority 2023, published 2026).
# What was measured:
# Assay type in all cases: cell-based
# [1] = system: M. abscessus (ATCC 19977); assay: MIC by broth microdilution, M. abscessus in cation adjusted Mueller Hinton broth; conditions: Mycobacteroides abscessus, ATCC19977, 96 h; ATCC 19977; cation adjusted Mueller Hinton broth without growth supplement; 30° C., 4 days; read-out: MIC M. abscessus MH
# Procedure: (§1) MIC values were determined by broth microdilution method according to the CLSI guidelines with the following exceptions: MIC against A. baumannii was performed in RPMI medium supplemented with 10% FCS and MIC against M. abscessus was performed in Middlebrook 7H9 broth supplemented with Middlebrook ADC growth supplement (10%; see column “M. abscessus 7H9”). MIC forM abscessus was determined a second time in standard cation adjusted Mueller Hinton broth without growth supplement (see colum “M. abscessus MH”). All other MIC were performed in standard cation adjusted Mueller Hinton broth, supplemented with Middlebrook ADC growth supplement (5%) for the slow growing mycobacteria (M. xenopi, M. kansasii and M. avium).
# (§2) The following procedure applies to all species tested, except forM xenopi. From a fresh culture plate (from overnight to several days depending on the bacteria), cells were resuspended in 0.9% (w/v) saline solution and bacterial inoculum was prepared in the respective testing medium with 5×10^5 CFU/mL. For M. xenopi, the inoculum was prepared from a fresh liquid culture (7H9+ADC). The appropriate volumes of a 10 mg/mL compound solution were directly dispensed in the 96-well assay plate using a digital dispenser to create two-fold dilution series from 32 to 0.002 μg/mL final concentration for A. baumannii and S. aureus; from 16 to 0.016 μg/mL for M. abscessus and M. avium; and from 1 to 6×10^−5 μg/mL for M. kansasii and M. xenopi. 100 μL of bacterial suspension was finally added to the compounds. Plates were covered and incubated without shaking at 35° C. for 20 hours for A. baumanii and S. aureus; at 30° C. for 4 days for M. abscessus; and at 37° C. for 7 days (at least) for M. kansasii (covered with aluminum foil to avoid light exposure), M. avium and M. xenopi. Every experiment contained an antibiotic as quality control. MIC was determined visually as the lowest concentration of a compound that prevents visible growth of the bacteria.
# (§3) The in vitro activity of compounds described herein was determined against S. aureus (UAMS-1625 strain), A. baumannii (HUMC1 strain), M. abscessus (ATCC 19977), M. kansasii (ATCC 12478), M. avium (ATCC 25291), and M. xenopi (ATCC 19250).
# [2] = system: A. baumannii (HUMC1 strain); assay: MIC by broth microdilution, A. baumannii (RPMI + 10% FCS); conditions: Acinetobacter baumannii; HUMC1 strain; RPMI medium + 10% FCS; 35° C., 20 hours; read-out: MIC A. baumannii
# Procedure: as §1, §2, §3
# [3] = system: S. aureus (UAMS-1625 strain); assay: MIC by broth microdilution, S. aureus; conditions: Staphylococcus aureus, 20 h, read-out: MIC S. aureus
# Procedure: as §1, §2, §3
Structure (SMILES),MIC [1],MIC [2],MIC [3]
CO[C@H]1/C=C/O[C@@]2(C)Oc3c(C)c(O)c4c(c3C2=O)C2=NC3(CCN(CC(C)C)CC3)NC2=C(NC(=O)/C(C)=C\C=C\[C@H](C)[C@H](O)[C@@H](C)[C@@H](O)[C@@H](C)[C@H](OC(=O)N2CCCC3(CCN(C)CC3)C2)[C@@H]1C)C4=O [Compound 20],1 µg/mL,≤ 0.016 µg/mL,0.06 µg/mL
CO[C@H]1/C=C/O[C@@]2(C)Oc3c(C)c(O)c4c(c3C2=O)C2=NC3(CCN(CC(C)C)CC3)NC2=C(NC(=O)/C(C)=C\C=C\[C@H](C)[C@H](O)[C@@H](C)[C@@H](O)[C@@H](C)[C@H](OC(=O)N2CCOC3(CCN(C)CC3)C2)[C@@H]1C)C4=O [Compound 24],2 µg/mL,≤ 0.016 µg/mL,0.06 µg/mL
CO[C@H]1/C=C/O[C@@]2(C)Oc3c(C)c(O)c4c(c3C2=O)C2=NC3(CCN(CC(C)C)CC3)NC2=C(NC(=O)/C(C)=C\C=C\[C@H](C)[C@H](O)[C@@H](C)[C@@H](O)[C@@H](C)[C@H](OC(=O)N2CCN3CCCC3C2)[C@@H]1C)C4=O (stereo partly drawn) [Compound 25],2 µg/mL,≤ 0.016 µg/mL,0.03 µg/mL
CO[C@H]1/C=C/O[C@@]2(C)Oc3c(C)c(O)c4c(c3C2=O)C2=NC3(CCN(CC(C)C)CC3)NC2=C(NC(=O)/C(C)=C\C=C\[C@H](C)[C@H](O)[C@@H](C)[C@@H](O)[C@@H](C)[C@H](OC(=O)NC2CCN(CC3CCCCC3)CC2)[C@@H]1C)C4=O [Compound 29],0.25 µg/mL,≤ 0.016 µg/mL,0.125 µg/mL
CO[C@H]1/C=C/O[C@@]2(C)Oc3c(C)c(O)c4c(c3C2=O)C2=NC3(CCN(CC(C)C)CC3)NC2=C(NC(=O)/C(C)=C\C=C\[C@H](C)[C@H](O)[C@@H](C)[C@@H](O)[C@@H](C)[C@H](OC(=O)N2CC3CC2CN3Cc2ccccc2)[C@@H]1C)C4=O [Compound 32],0.5 µg/mL,0.03 µg/mL,0.25 µg/mL
CO[C@H]1/C=C/O[C@@]2(C)Oc3c(C)c(O)c4c(c3C2=O)C2=NC3(CCN(CC(C)C)CC3)NC2=C(NC(=O)/C(C)=C\C=C\[C@H](C)[C@H](O)[C@@H](C)[C@@H](O)[C@@H](C)[C@H](OC(=O)N2CCC3(CCN(CC5CCCCC5)C3)C2)[C@@H]1C)C4=O (stereo partly drawn) [Compound 36],0.125 µg/mL,0.06 µg/mL,0.25 µg/mL
CO[C@H]1/C=C/O[C@@]2(C)Oc3c(C)c(O)c4c(c3C2=O)C2=NC3(CCN(CC(C)C)CC3)NC2=C(NC(=O)/C(C)=C\C=C\[C@H](C)[C@H](O)[C@@H](C)[C@@H](O)[C@@H](C)[C@H](OC(=O)N2CCN(Cc3nccn3C)CC2)[C@@H]1C)C4=O [Compound 37],2 µg/mL,≤ 0.016 µg/mL,0.03 µg/mL
CO[C@H]1/C=C/O[C@@]2(C)Oc3c(C)c(O)c4c(c3C2=O)C2=NC3(CCN(CC(C)C)CC3)NC2=C(NC(=O)/C(C)=C\C=C\[C@H](C)[C@H](O)[C@@H](C)[C@@H](O)[C@@H](C)[C@H](OC(=O)N2CCN(Cc3c(C)noc3C)CC2)[C@@H]1C)C4=O [Compound 38],1 µg/mL,≤ 0.016 µg/mL,0.125 µg/mL
CO[C@H]1/C=C/O[C@@]2(C)Oc3c(C)c(O)c4c(c3C2=O)C2=NC3(CCN(CC(C)C)CC3)NC2=C(NC(=O)/C(C)=C\C=C\[C@H](C)[C@H](O)[C@@H](C)[C@@H](O)[C@@H](C)[C@H](OC(=O)N2CCCN(CC3CCCCC3)CC2)[C@@H]1C)C4=O [Compound 41],0.125 µg/mL,0.06 µg/mL,1 µg/mL
CO[C@H]1/C=C/O[C@@]2(C)Oc3c(C)c(O)c4c(c3C2=O)C2=NC3(CCN(CC(C)C)CC3)NC2=C(NC(=O)/C(C)=C\C=C\[C@H](C)[C@H](O)[C@@H](C)[C@@H](O)[C@@H](C)[C@H](OC(=O)N2CCN(CCO)CC2)[C@@H]1C)C4=O [Compound 43],8 µg/mL,≤ 0.016 µg/mL,0.06 µg/mL
CO[C@H]1/C=C/O[C@@]2(C)Oc3c(C)c(O)c4c(c3C2=O)C2=NC3(CCN(CC(C)C)CC3)NC2=C(NC(=O)/C(C)=C\C=C\[C@H](C)[C@H](O)[C@@H](C)[C@@H](O)[C@@H](C)[C@H](OC(=O)N2CCN(CCOCCO)CC2)[C@@H]1C)C4=O [Compound 44],4 µg/mL,≤ 0.016 µg/mL,0.03 µg/mL
